ChEMBL document CHEMBL1201862, “PubChem BioAssay data set” (2004)
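Values below derive from 48-hour exposures of cells grown in 96-well plates, with endpoints linearly interpolated between the two concentrations bracketing the appropriate inhibition level. GI50: concentration for 50% inhibition of growth.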 Active and inactive are the calls of the source. Cut-off read from the data, not from the text of the source: active = GI50 up to about 1.1 µM and inactive = higher.

Experiments:
Assay in all cases: NCI tumour cell line growth inhibition, 48 h
T47D = test system: T47D
OVCAR-3 = test system: OVCAR-3
SK-OV-3 = test system: SK-OV-3
UO-31 = test system: UO-31
OVCAR-5 = test system: OVCAR-5
HOP-62 = test system: HOP-62
SK-MEL-5 = test system: SK-MEL-5
NCI-H460 = test system: NCI-H460
SK-MEL-28 = test system: SK-MEL-28
UACC-62 = test system: UACC-62
BT-549 = test system: BT-549
HOP-92 = test system: HOP-92
U-251 = test system: U-251
MDA-MB-435 = test system: MDA-MB-435
SK-MEL-2 = test system: SK-MEL-2
KM12 = test system: KM12
IGROV-1 = test system: IGROV-1
HT-29 = test system: HT-29
K562 = test system: K562
NCI-H522 = test system: NCI-H522

SMILES | GI50 (T47D) | GI50 (OVCAR-3) | GI50 (SK-OV-3) | GI50 (UO-31) | GI50 (OVCAR-5) | GI50 (HOP-62) | GI50 (SK-MEL-5) | GI50 (NCI-H460) | GI50 (SK-MEL-28) | GI50 (UACC-62) | GI50 (BT-549) | GI50 (HOP-92) | GI50 (U-251) | GI50 (MDA-MB-435) | GI50 (SK-MEL-2) | GI50 (KM12) | GI50 (IGROV-1) | GI50 (HT-29) | GI50 (K562) | GI50 (NCI-H522)
CC(C)Nc1n[nH]c(=O)n1C(C)C | > 100 µM (inactive) | > 100 µM (inactive) | > 100 µM (inactive) | > 100 µM (inactive) | > 100 µM (inactive) | > 100 µM (inactive) | > 100 µM (inactive) | > 100 µM (inactive) | > 100 µM (inactive) | > 100 µM (inactive) | > 100 µM (inactive) | > 100 µM (inactive) | > 100 µM (inactive) | > 100 µM (inactive) | > 100 µM (inactive) | > 100 µM (inactive) | > 100 µM (inactive) | > 100 µM (inactive) | > 100 µM (inactive) | –
CCOC(=O)/C=C(\C(=O)OCC)n1cc(C)c(=O)n(Cc2cn(COCCOC(C)=O)nn2)c1=O | 21.3 µM (inactive) | 13.2 µM (inactive) | 71.8 µM (inactive) | 14 µM (inactive) | 14.5 µM (inactive) | 20.3 µM (inactive) | 20.9 µM (inactive) | 10.2 µM (inactive) | 10.5 µM (inactive) | 17.8 µM (inactive) | 10.6 µM (inactive) | 1.61 µM (inactive) | 16.8 µM (inactive) | 6.55 µM (inactive) | 17.3 µM (inactive) | 16.2 µM (inactive) | 16.7 µM (inactive) | 7.33 µM (inactive) | 5.69 µM (inactive) | –
Cc1ccc2c(ccc3c[n+]4ccccc4c(C)c32)c1.[O-][Cl+3]([O-])([O-])[O-] | 2.47 µM (inactive) | 1.12 µM (active) | 10.3 µM (inactive) | 20.7 µM (inactive) | 10.5 µM (inactive) | 2.44 µM (inactive) | 1.1 µM (active) | > 100 µM (inactive) | 3.17 µM (inactive) | – | 1.15 µM (inactive) | 4.1 µM (inactive) | 0.581 µM (active) | 4.73 µM (inactive) | 1.39 µM (inactive) | 0.39 µM (active) | 8.04 µM (inactive) | 6.15 µM (inactive) | 4.16 µM (inactive) | 1.59 µM (inactive)
Nc1cc2c3c(cccc3c1)C(=O)N(c1ccc(OCCN3CCCCC3)cc1)C2=O | 20.4 µM (inactive) | 16.7 µM (inactive) | 15.1 µM (inactive) | 9.73 µM (inactive) | 20.8 µM (inactive) | 15.8 µM (inactive) | 15.3 µM (inactive) | – | 22.2 µM (inactive) | 19.1 µM (inactive) | 19.7 µM (inactive) | 14.9 µM (inactive) | 22 µM (inactive) | 24.7 µM (inactive) | 17.2 µM (inactive) | 20 µM (inactive) | 17.6 µM (inactive) | 10.2 µM (inactive) | 12.1 µM (inactive) | 18.5 µM (inactive)
Oc1ccccc1/C=N/c1ccc(Oc2ccc(Cl)cc2)c(Cl)c1 | 5.97 µM (inactive) | 15 µM (inactive) | 29.8 µM (inactive) | 11.1 µM (inactive) | 26.1 µM (inactive) | 15.5 µM (inactive) | 20.8 µM (inactive) | 18.6 µM (inactive) | 25 µM (inactive) | 24.9 µM (inactive) | 15.8 µM (inactive) | 20 µM (inactive) | 21.2 µM (inactive) | 28.3 µM (inactive) | 13.6 µM (inactive) | 23.8 µM (inactive) | 22.7 µM (inactive) | 19.5 µM (inactive) | – | 14.4 µM (inactive)
CCN(CC)c1ccc2nc3ccc(/N=N/c4c(O)ccc5ccccc45)cc3[n+](-c3ccccc3)c2c1 | > 100 µM (inactive) | > 100 µM (inactive) | > 100 µM (inactive) | > 100 µM (inactive) | > 100 µM (inactive) | > 100 µM (inactive) | > 100 µM (inactive) | – | > 100 µM (inactive) | > 100 µM (inactive) | > 100 µM (inactive) | > 100 µM (inactive) | > 100 µM (inactive) | > 100 µM (inactive) | > 100 µM (inactive) | > 100 µM (inactive) | > 100 µM (inactive) | > 100 µM (inactive) | > 100 µM (inactive) | > 100 µM (inactive)
O=c1[nH]nc(Cc2ccccc2)n1CCO | > 100 µM (inactive) | > 100 µM (inactive) | > 100 µM (inactive) | > 100 µM (inactive) | > 100 µM (inactive) | – | > 100 µM (inactive) | > 100 µM (inactive) | > 100 µM (inactive) | > 100 µM (inactive) | > 100 µM (inactive) | > 100 µM (inactive) | > 100 µM (inactive) | > 100 µM (inactive) | > 100 µM (inactive) | > 100 µM (inactive) | > 100 µM (inactive) | > 100 µM (inactive) | > 100 µM (inactive) | > 100 µM (inactive)
